Earlier results in patent publication US20080171032A1, “DIETARY SUPPLEMENT COMPOSITION AND METHOD OF USE FOR THE TREATMENT AND PREVENTION OF OXIDATIVE STRESS” (priority 2007, published 2008).

Experiments:
[1] = tested on: serum lipid oxidation products; details: human, tocotrienol supplementation at 40 mg/day, versus placebo
[2] = tested on: advanced glycation end-products (AGEs); details: 600 mg/day prior to blood draw
dermatomyositis = details: two dermatomyositis patients, 15 to 20 grams daily
scleroderma = details: about 12 grams daily

For `NCCC(=O)N[C@@H](Cc1cnc[nH]1)C(=O)O` [carnosine], the “effect on cells approaching senescence” value (human fibroblasts; human fibroblasts approaching senescence supplemented with carnosine) is listed as “markedly rejuvenated and their lifespan extended” and the “onset of cell senescence” value (human fibroblasts; human fibroblasts exposed to 50 mM carnosine) is listed as “reduction in onset of cell senescence”.

For tocotrienol, the “lowering of serum lipid oxidation products” value [1] is given as “more effective in lowering serum lipid oxidation products than placebo”.

In the case of `Nc1ccc(C(=O)O)cc1` [PABA, 4-aminobenzoic acid], the solubility in water is given as “slight”.

For `C/C(=C(\CCOP(=O)(O)O)SC(=O)c1ccccc1)N(C=O)Cc1cnc(C)nc1N` [benfotiamine], the “AGE formation in the cells of test subjects” value [2] is listed as “significant decrease” and the “glycoxidation in the cells of test subjects” value [2] is listed as “significant decrease”.

In the case of `Nc1ccc(C(=O)[O-])cc1.[K+]` [POTABA, potassium para-aminobenzoate], the clinical improvement (dermatomyositis) is listed as “Clinical improvement was noted”, the “patients with mild, moderate or marked skin softening” value (scleroderma; 224 scleroderma patients) is listed as “Ninety” and the adverse events (scleroderma; scleroderma patients) is listed as “no significant adverse events were reported”.

In the case of `CC1=C(/C=C/C(C)=C/C=C/C(C)=C/C=C/C=C(C)/C=C/C=C(C)/C=C/C2=C(C)C(=O)[C@@H](O)CC2(C)C)C(C)(C)C[C@H](O)C1=O` [Astaxanthin], the “protection against oxygen-induced mitochondrial membrane damage” value (mitochondrial membranes) is listed as “protection against oxygen-induced mitochondrial membrane damage”.
